Results: US11542274B1, “Therapeutic compounds and methods of use thereof” (AGENCY FOR SCIENCE, TECHNOLOGY AND RESEARCH (A*STAR), priority 2019, dated 2023)

Target: truncated CRBN (319-427) (Homo sapiens (Human), UniProt Q96SW2)
Experiment: Fluorescence binding assay (fluorescence quenching), affinity to E3-CEREBLON (CRBN)-ubiquitin ligase
Conditions: pH 6.5
Method: Fluorescence quenching end point measurements were performed in black polystyrene 384-plates on Tecan Safire monochromator reader with the following settings: excitation 280 nm; excitation bandwidth 10.0 nm; emission collection 340 nm; emission bandwidth 20.0 nm; high sensitivity flash mode; integration time 40 μS; delay 0 μm. All measurements were done in duplicates; GraphPad Prism 5.03 was used for data evaluation, curve fitting, plotting and determination of IC50 values.
Serial dilutions of each tested ligands were mixed with truncated CRBN (319-427) to a final volume of 25 μL in the assay buffer (20 mM sodium phosphate buffer, pH 6.5, with 150 mM sodium chloride). The final concentration of CRBN in all assay will be 5-10 μM with DMSO level at 4%. A control lanes were prepared with only tested ligands without the addition of CRBN, top up with assay buffer to 25 μL. Plates were incubated for 5 minutes and analyzed using the monochromator plate reader.
IC50 is the compound concentration that causes 50% quenching of the desired activity.

[1] = ubiquitination moiety and linker

Chain of truncated CRBN (319-427) (Q96SW2 319-427): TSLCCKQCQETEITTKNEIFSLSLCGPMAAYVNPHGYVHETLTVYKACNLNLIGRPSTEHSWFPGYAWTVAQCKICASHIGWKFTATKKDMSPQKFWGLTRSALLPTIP

| Compound | IC50 (ubiquitination moiety) | IC50 [1] |
| --- | --- | --- |
| Cc1nc(N)ccc1-c1ccc2c(c1)CC(=O)N2 [Compound 044, 5-(6-amino-2-methylpyridin-3-yl)indolin-2-one] | 100 to 300 µM | – |
| [N-]=[N+]=NCCOCCOCCOCCNc1ccc(-c2ccc3c(c2)NC(=O)C3)cn1 [Compound 089, 6-(6-((2-(2-(2-(2-azidoethoxy)ethoxy)ethoxy)ethyl)amino)pyridin-3-yl)indolin-2-one] | – | 100 to 300 µM |
| [N-]=[N+]=NCCOCCOCCOCCNc1cc(-c2ccc3c(c2)CC(=O)N3)ccn1 [Compound 088, 5-(2-((2-(2-(2-(2-azidoethoxy)ethoxy)ethoxy)ethyl)amino)pyridin-4-yl)indolin-2-one] | – | 100 to 300 µM |
| CC1C(=O)Nc2cc(-c3ccncc3)ccc21 (stereo not drawn) [Compound 007, 3-methyl-6-(pyridin-4-yl)indolin-2-one] | 100 to 300 µM | – |
| O=C1Cc2cc(-c3ccc(N4CCCCC4)nc3)ccc2N1 [Compound 057, 5-(6-(piperidin-1-yl)pyridin-3-yl)indolin-2-one] | > 300 µM | – |
| NCCCCCNc1cc(-c2ccc3c(c2)NC(=O)C3)ccn1 [Compound 087, 6-(2-((5-aminopentyl)amino)pyridin-4-yl)indolin-2-one] | – | > 300 µM |
| O=C1Cc2cc(NC(=O)c3cccnc3)ccc2N1 [Compound 072, N-(2-oxoindolin-5-yl)nicotinamide] | 100 to 300 µM | – |
| O=C1Cc2cc(-c3ccncc3)ccc2N1 [Compound 039, 5-(pyridin-4-yl)indolin-2-one] | 100 to 300 µM | – |
| O=C1Cc2ccc(-c3ccccn3)cc2N1 [Compound 004, 6-(pyridin-2-yl)indolin-2-one] | 100 to 300 µM | – |
| [N-]=[N+]=NCCOCCOCCOCCNc1ncccc1-c1ccc2c(c1)NC(=O)C2 [Compound 095, 6-(2-((2-(2-(2-(2-azidoethoxy)ethoxy)ethoxy)ethyl)amino)pyridin-3-yl)indolin-2-one] | – | > 300 µM |
| Nc1ccc(OCCOCCOCCOCCNC(=O)c2cccc(-c3ccc4c(c3)CC(=O)N4)c2)cc1 [Compound 091, N-(2-(2-(2-(2-(4-aminophenoxy)ethoxy)ethoxy)ethoxy)ethyl)-3-(2-oxoindolin-5-yl)benzamide] | – | 1 to 100 µM |
| O=C1Cc2ccc(-c3ccc4[nH]ccc4c3)cc2N1 [Compound 016, 6-(1H-indol-5-yl)indolin-2-one] | > 300 µM | – |
| O=C1Cc2ccc(-c3cnc4[nH]ccc4c3)cc2N1 [Compound 017, 6-(1H-pyrrolo[2,3-b]pyridin-5-yl)indolin-2-one] | > 300 µM | – |
| O=C1Cc2ncc(-c3ccncc3)cc2N1 [Compound 075, 6-(pyridin-4-yl)-1,3-dihydro-2H-pyrrolo[3,2-b]pyridin-2-one] | > 300 µM | – |
| O=C1Cc2cc(-c3ccncc3)ncc2N1 [Compound 073, 5-(pyridin-4-yl)-1,3-dihydro-2H-pyrrolo[2,3-c]pyridin-2-one] | > 300 µM | – |
| Cc1cnccc1-c1ccc2c(c1)NC(=O)C2 [Compound 006, 6-(3-methylpyridin-4-yl)indolin-2-one] | > 300 µM | – |
| [N-]=[N+]=NCCOCCOCCOCCNc1ccc(-c2ccc3c(c2)CC(=O)N3)cn1 [Compound 092, 5-(6-((2-(2-(2-(2-azidoethoxy)ethoxy)ethoxy)ethyl)amino)pyridin-3-yl)indolin-2-one] | – | 1 to 100 µM |
| CC(=O)Nc1ncc(-c2ccc3c(c2)CC(=O)N3)cc1C [Compound 048, N-(3-methyl-5-(2-oxoindolin-5-yl)pyridin-2-yl)acetamide] | 100 to 300 µM | – |
| CN1C(=O)Cc2ccc(-c3ccncc3)cc21 [Compound 008, 1-methyl-6-(pyridin-4-yl)indolin-2-one] | > 300 µM | – |
| O=C1Cc2ccc(-c3ccnc(Cl)c3)cc2N1 [Compound 009, 6-(2-chloropyridin-4-yl)indolin-2-one] | > 300 µM | – |
| O=C1Cc2cc(-c3ccccc3)ccc2N1 [Compound 051, 5-phenylindolin-2-one] | > 300 µM | – |
| O=C1Cc2cnc(-c3ccncc3)cc2N1 [Compound 074, 6-(pyridin-4-yl)-1,3-dihydro-2H-pyrrolo[3,2-c]pyridin-2-one] | 100 to 300 µM | – |
| O=C1Cc2cc(NC(=O)c3ccnc(F)c3)ccc2N1 [Compound 076, 2-fluoro-N-(2-oxoindolin-5-yl)isonicotinamide] | 100 to 300 µM | – |
| O=C1Cc2cccc(-c3ccncc3)c2N1 [Compound 037, 7-(pyridin-4-yl)indolin-2-one] | > 300 µM | – |
| Cc1cc(-c2ccc3c(c2)NC(=O)C3)ccn1 [Compound 005, 6-(2-methylpyridin-4-yl)indolin-2-one] | 100 to 300 µM | – |
| [N-]=[N+]=NCCOCCOCCOCCNc1cc(-c2ccc3c(c2)NC(=O)C3)ccn1 [Compound 085, 6-(2-((2-(2-(2-(2-azidoethoxy)ethoxy)ethoxy)ethyl)amino)pyridin-4-yl)indolin-2-one] | – | 100 to 300 µM |
| CC(C)C1C(=O)Nc2ccc(-c3ccncc3)cc21 (stereo not drawn) [Compound 082, 3-isopropyl-5-(pyridin-4-yl)indolin-2-one] | > 300 µM | – |

Now from value to compound:

| IC50 (ubiquitination moiety) | IC50 [1] | Compound |
| --- | --- | --- |
| > 300 µM | – | O=C1Cc2ccc(-c3cccc(C(=O)N4CCNCC4)c3)cc2N1 [Compound 021, 6-(3-(piperazine-1-carbonyl)phenyl)indolin-2-one] |
| > 300 µM | – | NC1CCN(C(=O)c2ccc3c(c2)NC(=O)C3)CC1 [Compound 077, 6-(4-aminopiperidine-1-carbonyl)indolin-2-one] |
| > 300 µM | – | CC(C)(C)OC(=O)N1CCN(C(=O)c2ccc(-c3ccc4c(c3)CC(=O)N4)cc2)CC1 [Compound 052, tert-butyl 4-(4-(2-oxoindolin-5-yl)benzoyl)piperazine-1-carboxylate] |
| > 300 µM | – | O=C1Cc2ccc(OC3CCNCC3)cc2N1 [Compound 034, 6-(piperidin-4-yloxy)indolin-2-one] |
| 100 to 300 µM | – | O=C1Cc2cc(-c3ccc(C(=O)N4CCNCC4)cc3)ccc2N1 [Compound 054, 5-(4-(piperazine-1-carbonyl)phenyl)indolin-2-one] |
| > 300 µM | – | O=C1Cc2cc(C(=O)N3CCC(Cc4ccccc4)CC3)ccc2N1 [Compound 069, 5-(4-benzylpiperidine-1-carbonyl)indolin-2-one] |
| 1 to 100 µM | – | CC(C)(C)OC(=O)N1CCN(C(=O)c2cccc(-c3ccc4c(c3)CC(=O)N4)c2)CC1 [Compound 053, tert-butyl 4-(3-(2-oxoindolin-5-yl)benzoyl)piperazine-1-carboxylate] |
| > 300 µM | – | COC(=O)c1ccccc1-c1ccc2c(c1)NC(=O)C2 [Compound 079, methyl 2-(2-oxoindolin-6-yl)benzoate] |
| 100 to 300 µM | – | O=C1Cc2ccc(-c3ccncc3)cc2N1 [Compound 002, 6-(pyridin-4-yl)indolin-2-one] |
| 100 to 300 µM | – | CC(=O)N1CCC(C(=O)Nc2ccc3c(c2)CC(=O)N3)CC1 [Compound 060, 1-acetyl-N-(2-oxoindolin-5-yl)piperidine-4-carboxamide] |
| > 300 µM | – | NC1CCCN(C(=O)c2ccc3c(c2)NC(=O)C3)C1 (stereo not drawn) [Compound 080, 6-(3-aminopiperidine-1-carbonyl)indolin-2-one] |
| > 300 µM | – | O=C1Cc2ccc(-c3ccc(C(=O)N4CCNCC4)cc3)cc2N1 [Compound 020, 6-(4-(piperazine-1-carbonyl)phenyl)indolin-2-one] |
| 100 to 300 µM | – | CCOC(=O)c1cc(-c2ccc3c(c2)NC(=O)C3)ccn1 [Compound 014, ethyl 4-(2-oxoindolin-6-yl)picolinate] |
| > 300 µM | – | Cn1cc(-c2ccc3c(c2)NC(=O)C3)cn1 [Compound 015, 6-(1-methyl-1H-pyrazol-4-yl)indolin-2-one] |
| 100 to 300 µM | – | O=C1Cc2cc(C(=O)N3CCCCC3)ccc2N1 [Compound 058, 5-(piperidine-1-carbonyl)indolin-2-one] |
| > 300 µM | – | O=C1Cc2ccc(C(=O)NC3CCCCC3)cc2N1 [Compound 025, N-cyclohexyl-2-oxoindoline-6-carboxamide] |
| > 300 µM | – | O=C1Cc2ccc(C3=CCN(C(=O)OCc4ccccc4)CC3)cc2N1 [Compound 063, benzyl 4-(2-oxoindolin-6-yl)-3,6-dihydropyridine-1(2H)-carboxylate] |
| > 300 µM | – | O=C1Cc2ccc(-c3cccnc3)cc2N1 [Compound 003, 6-(pyridin-3-yl)indolin-2-one] |
| > 300 µM | – | O=C1Cc2ccc(-c3ccc(N4CCCCC4)nc3)cc2N1 [Compound 064, 6-(6-(piperidin-1-yl)pyridin-3-yl)indolin-2-one] |
| 100 to 300 µM | – | O=C1Cc2cc(NC(=O)c3ccncc3)ccc2N1 [Compound 059, N-(2-oxoindolin-5-yl)isonicotinamide] |
| 100 to 300 µM | – | O=C1Cc2cc(-c3cccc(C(=O)N4CCNCC4)c3)ccc2N1 [Compound 055, 5-(3-(piperazine-1-carbonyl)phenyl)indolin-2-one] |
| 1 to 100 µM | – | CNC(=O)c1ccc(-c2ccc3c(c2)NC(=O)C3)cc1 [Compound 022, N-methyl-4-(2-oxoindolin-6-yl)benzamide] |
| 1 to 100 µM | – | CNC(=O)c1cccc(-c2ccc3c(c2)NC(=O)C3)c1 [Compound 023, N-methyl-3-(2-oxoindolin-6-yl)benzamide] |
| > 300 µM | – | CN1C(=O)Cc2cc(C(=O)N3CCCCC3)ccc21 [Compound 083, 1-methyl-5-(piperidine-1-carbonyl)indolin-2-one] |
| > 300 µM | – | CN1CCN(CCNC(=O)c2ccc3c(c2)NC(=O)C3)CC1 [Compound 028] |
| 100 to 300 µM | – | O=C1Cc2ccc(NC(=O)c3ccncc3)cc2N1 [Compound 032, N-(2-oxoindolin-6-yl)isonicotinamide] |
| > 300 µM | – | O=C1Cc2ccc(-c3ccc(N4CCNCC4)nc3)cc2N1 [Compound 065, 6-(6-(piperazin-1-yl)pyridin-3-yl)indolin-2-one] |
